Results published in patent US6544991B2, “Compositions and methods for treating bacterial infections” (priority 2000, dated 2003).

How the values were obtained:
MRSA strains = assay: MIC by agar dilution or microbroth dilution method (NCCLS); type: cell-based, Staph. aureus
Protocol: (§1) Bacterial isolates were obtained from human infections. The isolates were maintained frozen in a liquid nitrogen freezer and plated on Trypticase Soy Agar (TSA) plates supplemented with 5% sheep blood. The quality control strain Staph. aureus 29213 was originally acquired from the American Type Culture Collection (Rockville, Md.).
(§2) MICs were determined by an agar dilution method or microbroth dilution method recommended by NCCLS. Synergy was assessed by agar dilution checker-board method. Minimal inhibitory concentrations (MICS) for each separate drug were determined. The fractional inhibitory concentration (FIC) values were calculated by the MIC of Drug A (e.g., sulbactam/ampicillin) and Drug B (e.g., linezolid or arbekacin) in combination/MIC of Drug A or B alone. The FIC index was determined according to the following formula: [formula]

VRSA strains = assay: MIC by agar dilution or microbroth dilution method (NCCLS), VRSA strains; type: cell-based, Staph. aureus; details: VRSA strains (n = 10)
Protocol: as §1, §2
In total, 48 MRSA strains were tested, including ten VRSA strains isolated from five different countries in the world, 33 MRSA strains isolated from ten Japanese university hospitals, and five MRSA type strains from Juntendo University, Department of Bacteriology, Tokyo, Japan.

Staph. aureus 29213 = assay: MIC, quality control strain; type: cell-based
Protocol: as §1, §2

[1] = strain JSCC 581 (lacks the mecA gene)
[2] = strain JSCC 590 (lacks the mecA gene)
[3] = strain ATCC 29213, control sample (Ex. 26)
[4] = strain ATCC29213, control sample (Ex. 37)

CO/N=C(\C(=O)N[C@@H]1C(=O)N2C(C(=O)O)=CCS[C@H]12)c1csc(N)n1 [CZX, ceftizoxime]
MICs 50% (MRSA strains; MRSA strains (n = 38)): >128 mg/L
MICs 90% (MRSA strains; MRSA strains (n = 38)): >128 mg/L
MIC Values (MRSA strains; strain 85/2082): >128 µg/mL
MIC Values (MRSA strains; strain 99.3700W): >128 µg/mL
MIC Values (MRSA strains; strain 99.3759V): >128 µg/mL
MIC Values (MRSA strains; strain AMC 11094): >128 µg/mL
MIC Values (MRSA strains; strain BM12612(new)): >128 µg/mL
MIC Values (MRSA strains; strain H1): 2048 µg/mL
MIC Values (MRSA strains; strain HIP 5827): >128 µg/mL
MIC Values (MRSA strains; strain HIP 5836): >128 µg/mL
MIC Values (MRSA strains; strain HIP 6297): >128 µg/mL
MIC Values (MRSA strains; strain HIP 7737): >128 µg/mL
MIC Values (MRSA strains; strain JSCC 340): >128 µg/mL
MIC Values (MRSA strains; strain JSCC 351): >128 µg/mL
MIC Values (MRSA strains; strain JSCC 363): >128 µg/mL
MIC Values (MRSA strains; strain JSCC 381): >128 µg/mL
MIC Values (MRSA strains; strain JSCC 390): >128 µg/mL
MIC Values (MRSA strains; strain JSCC 401): >128 µg/mL
MIC Values (MRSA strains; strain JSCC 413): >128 µg/mL
MIC Values (MRSA strains; strain JSCC 431): >128 µg/mL
MIC Values (MRSA strains; strain JSCC 440): >128 µg/mL
MIC Values (MRSA strains; strain JSCC 451): >128 µg/mL
MIC Values (MRSA strains; strain JSCC 463): >128 µg/mL
MIC Values (MRSA strains; strain JSCC 481): >128 µg/mL
MIC Values (MRSA strains; strain JSCC 490): >128 µg/mL
MIC Values (MRSA strains; strain JSCC 501): >128 µg/mL
MIC Values (MRSA strains; strain JSCC 513): >128 µg/mL
MIC Values (MRSA strains; strain JSCC 531): >128 µg/mL
MIC Values (MRSA strains; strain JSCC 540): >128 µg/mL
MIC Values (MRSA strains; strain JSCC 551): >128 µg/mL
MIC Values (MRSA strains; strain JSCC 563): 16 µg/mL
MIC Values (MRSA strains; [1]): 16 µg/mL
MIC Values (MRSA strains; [2]): 16 µg/mL
MIC Values (MRSA strains; strain JSCC 601): >128 µg/mL
MIC Values (MRSA strains; strain JSCC 640): >128 µg/mL
MIC Values (MRSA strains; strain JSCC 651): >128 µg/mL
MIC Values (MRSA strains; strain JSCC 663): >128 µg/mL
MIC Values (MRSA strains; strain JSCC 681): >128 µg/mL
MIC Values (MRSA strains; strain JSCC 690): >128 µg/mL
MIC Values (MRSA strains; strain JSCC 701): >128 µg/mL
MIC Values (MRSA strains; strain JSCC 713): >128 µg/mL
MIC Values (MRSA strains; strain JSCC 731): >128 µg/mL
MIC Values (MRSA strains; strain JSCC 740): >128 µg/mL
MIC Values (MRSA strains; strain JSCC 751): >128 µg/mL
MIC Values (MRSA strains; strain JSCC 763): >128 µg/mL
MIC Values (MRSA strains; strain JSCC 781): >128 µg/mL
MIC Values (MRSA strains; strain JSCC 870): >128 µg/mL
MIC Values (MRSA strains; strain LIM 2): >128 µg/mL
MIC Values (MRSA strains; strain Mu 3): >128 µg/mL
MIC Values (MRSA strains; strain Mu 50): >128 µg/mL
MIC Values (MRSA strains; strain N315): 64 µg/mL
MIC Values (MRSA strains; strain NCTC 10442): >128 µg/mL
MICs 50% (VRSA strains): >128 mg/L
MICs 90% (VRSA strains): >128 mg/L
MICs Range (VRSA strains): >128 mg/L
MIC Values (Staph. aureus 29213; [3]): 8 µg/mL
MIC Values (Staph. aureus 29213; [4]): 4 µg/mL

C[C@@H](O)[C@H]1C(=O)N2C(C(=O)O)=C(SCCN=CN)C[C@H]12 [IPM, imipenem]
MICs 50% (MRSA strains; MRSA strains (n = 38)): 16 mg/L
MICs 90% (MRSA strains; MRSA strains (n = 38)): 64 mg/L
MICs Range (MRSA strains; MRSA strains (n = 38)): >0.125 to 128 mg/L
MIC Values (MRSA strains; strain 85/2082): 2 µg/mL
MIC Values (MRSA strains; strain 99.3700W): 32 µg/mL
MIC Values (MRSA strains; strain 99.3759V): 64 µg/mL
MIC Values (MRSA strains; strain AMC 11094): 32 µg/mL
MIC Values (MRSA strains; strain BM12612(new)): 128 µg/mL
MIC Values (MRSA strains; strain H1): 64 µg/mL
MIC Values (MRSA strains; strain HIP 5827): 64 µg/mL
MIC Values (MRSA strains; strain HIP 5836): 8 µg/mL
MIC Values (MRSA strains; strain HIP 6297): 1 µg/mL
MIC Values (MRSA strains; strain HIP 7737): 32 µg/mL
MIC Values (MRSA strains; strain JSCC 340): 64 µg/mL
MIC Values (MRSA strains; strain JSCC 351): 32 µg/mL
MIC Values (MRSA strains; strain JSCC 363): 32 µg/mL
MIC Values (MRSA strains; strain JSCC 381): 32 µg/mL
MIC Values (MRSA strains; strain JSCC 390): 32 µg/mL
MIC Values (MRSA strains; strain JSCC 401): 64 µg/mL
MIC Values (MRSA strains; strain JSCC 413): 16 µg/mL
MIC Values (MRSA strains; strain JSCC 431): 1 µg/mL
MIC Values (MRSA strains; strain JSCC 440): 16 µg/mL
MIC Values (MRSA strains; strain JSCC 451): 64 µg/mL
MIC Values (MRSA strains; strain JSCC 463): 64 µg/mL
MIC Values (MRSA strains; strain JSCC 481): 64 µg/mL
MIC Values (MRSA strains; strain JSCC 490): 32 µg/mL
MIC Values (MRSA strains; strain JSCC 501): 32 µg/mL
MIC Values (MRSA strains; strain JSCC 513): 8 µg/mL
MIC Values (MRSA strains; strain JSCC 531): 32 µg/mL
MIC Values (MRSA strains; strain JSCC 540): 64 µg/mL
MIC Values (MRSA strains; strain JSCC 551): 16 µg/mL
MIC Values (MRSA strains; strain JSCC 563): ≦0.125 mcg/mL
MIC Values (MRSA strains; [1]): ≦0.125 mcg/mL
MIC Values (MRSA strains; [2]): ≦0.125 mcg/mL
MIC Values (MRSA strains; strain JSCC 601): 1 µg/mL
MIC Values (MRSA strains; strain JSCC 640): 32 µg/mL
MIC Values (MRSA strains; strain JSCC 651): 32 µg/mL
MIC Values (MRSA strains; strain JSCC 663): 8 µg/mL
MIC Values (MRSA strains; strain JSCC 681): 8 µg/mL
MIC Values (MRSA strains; strain JSCC 690): 16 µg/mL
MIC Values (MRSA strains; strain JSCC 701): 32 µg/mL
MIC Values (MRSA strains; strain JSCC 713): 32 µg/mL
MIC Values (MRSA strains; strain JSCC 731): 32 µg/mL
MIC Values (MRSA strains; strain JSCC 740): 16 µg/mL
MIC Values (MRSA strains; strain JSCC 751): 32 µg/mL
MIC Values (MRSA strains; strain JSCC 763): 8 µg/mL
MIC Values (MRSA strains; strain JSCC 781): 32 µg/mL
MIC Values (MRSA strains; strain JSCC 870): 16 µg/mL
MIC Values (MRSA strains; strain LIM 2): 8 µg/mL
MIC Values (MRSA strains; strain Mu 3): 128 µg/mL
MIC Values (MRSA strains; strain Mu 50): 64 µg/mL
MIC Values (MRSA strains; strain N315): 1 µg/mL
MIC Values (MRSA strains; strain NCTC 10442): 64 µg/mL
MICs 50% (VRSA strains): 32 mg/L
MICs 90% (VRSA strains): 64 mg/L
MICs Range (VRSA strains): 1 to 128 mg/L
MIC Values (Staph. aureus 29213; [3]): ≦0.125 mcg/mL
MIC Values (Staph. aureus 29213; [4]): ≦0.125 mcg/mL
